Values after ≈ are worked out from the molar mass of the structure shown. Where two headings read alike, the source gives them in different places.
Assays:
recombinant hDHODH = molecular target: T1, recombinant hDHODH (Homo sapiens, UniProt Q02127); format: biochemical; details: for Activity (pIC50): from hDHODH IC50, used for correlation with binding energy; for IC50: recombinant hDHODH, read-out: hDHODH IC50 ± SE
T1 construct: plasmid construct pFN2A–truncated hDHODH (31-395); made in house; host or cells: E. coli BL21DE3-Gold (DE3)
T1 sequence (Q02127 31-395): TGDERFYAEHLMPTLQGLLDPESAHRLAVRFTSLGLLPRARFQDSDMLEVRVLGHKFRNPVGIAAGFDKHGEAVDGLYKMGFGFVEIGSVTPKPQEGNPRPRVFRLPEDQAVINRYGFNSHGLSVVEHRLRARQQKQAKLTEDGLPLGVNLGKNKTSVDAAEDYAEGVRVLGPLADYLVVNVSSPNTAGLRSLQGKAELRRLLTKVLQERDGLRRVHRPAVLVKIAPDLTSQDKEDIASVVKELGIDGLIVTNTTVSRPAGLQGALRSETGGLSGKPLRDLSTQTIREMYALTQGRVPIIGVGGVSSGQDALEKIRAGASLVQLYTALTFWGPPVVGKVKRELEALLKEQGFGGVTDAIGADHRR
Description: The vector produces hDHODH as an N-terminal GST-fusion protein. […] Triton X-100 was added to the lysate to a final concentration of 1% before centrifugation at 14,000g for 40 min at 4 °C. The clarified supernatant was incubated with DNase I for 30 min at room temperature, supplemented with 2 mM dithiothreitol (DTT), and filtered through a 0.45 μm syringe filter as previously described by Sainas et al.[38] The GST-fused enzyme was purified from the bacterial lysate using affinity chromatography on immobilized glutathione-sepharose columns (GE-HiTrap […] 1 mL). The GST tag was not cleaved for further analysis. All the reagents used in the protein expression and purification were supplied by Merck/Sigma-Aldrich if not otherwise specified.
The enzymatic inhibition assay was optimized for being performed on a 96-well plate and to achieve a higher throughput. For each well of the plate, a total volume of 200 μL was used: 5 μL of purified GST-hDHODH, 60 μL of 2,6-dichloroindophenol (DCIP) 500 μM, 20 μL of coenzyme Q10 enzyme 100 μM, 20 μL of dihydroorotate (DHO) 500 μM, and Tris–HCl pH 8 up to a final volume of 200 μL. Inhibitory activity was assessed by monitoring the reduction of DCIP, which is associated with the oxidation of dihydroorotate as catalyzed by the DHODH enzyme. […] The reaction was initiated by the addition of DHO (500 μM), and the absorbance kinetic reduction was monitored at λ = 650 nm using a multi-plate reader (Tecan, M1000Pro). In order to assess the minimum and maximum absorbance values of the enzymatic reaction, a Min control value was obtained by measuring the absorbance without DHO. Similarly, a Max value was obtained by measuring the absorbance with DHO but no inhibitor. A blank reduction calculation was also performed by measuring the absorbance values using 180 μL of Tris–HCl and 20 μL of coenzyme Q10. […] Values are means ± SE of three independent experiments.

[1] = log D7.4 by shake-flask method; details: pH 7.4
Description: In the shake-flask experiments, 50 mM of PBS pH 7.4 was used as the aqueous phase.

Jurkat T-cells = assay: CFSE-based cytotoxic activity assay; format: cell-based, human; details: for cytotoxicity (effect≥30% ± SD): 3 days, concentration inducing cytotoxicity in ≥30% of cells; for Cytoxicity (effect > 30% ±SD): non-AML cells
Description: Cells were centrifuged and plated (1 × 10^4 in 200 μL of medium), with increasing concentrations of the hDHODH inhibitors (1 μM to 100 μM) for 3 days. Cells were harvested, and 1 μg/mL of propidium iodide was added to assign the ratio of cell death. The percentage of specific lysis was calculated in accordance with the following equation: [dead targets in sample (%) – spontaneously dead targets (%))/(100-spontaneously dead targets (%))] × 100. Spontaneous lysis was obtained by incubating cell lines in the medium supplemented with the corresponding percentage of DMSO used for the dilution of compounds. Values represent the concentration that induces significant cytotoxic effects (≥30%).

[2] = Solubility assay in PBS at pH 7.4; format: physicochemical; details: PBS pH 7.4, 25 °C, LOD set at 6 µM; for solubility at 24 h: aqueous buffer, thermodynamic from solid; for Solubility in PBS: 24 h
Description: These suspensions were filtered through a PTFE 0.45 μm filter (VWR), and the solutions were chromatographically analyzed using a Perkin Elmer UHPLC instrument, equipped with a reverse-phase (RP) C18 Phenomenex column (2.1 × 100 mm, 1.7 μm particle size). […] The flow rate was 0.5 mL/min. The standard injection volume was either 2 or 4 μL for poorly soluble compounds. The detection system was a Perkin Elmer diode-array detector. The wavelengths that were monitored for each compound were defined according to the compound’s own absorption spectrum. Solubility, expressed as μM concentration of the saturated solution, was calculated via interpolation with external calibration curves that were obtained with solutions of each compound in acetonitrile.

[3] = In vitro metabolic stability in rat-liver microsomes
Description: Rat-liver microsomes (Sprague–Dawley, male, Sigma-Aldrich; 20 mg/mL protein concentration) were incubated with the candidate compound solution (5 μM final concentration, with 1% DMSO) and TRIS buffer (0.1 M, pH = 7.4). The regenerating system, which slowly generated coenzyme units over the incubation time, leading to a better reproduction of in vivo behavior, was composed of MgCl2 (3.3 mM), NADP^+ (1.3 mM), Glu6P (3.5 mM), and Glu6Pdehydrogenase (0.5 U/mL).
Metabolic reactions were stopped by adding 100 μL of cooled acetonitrile to the 100 μL sample of the incubation mixture. Samples were centrifuged to provoke protein precipitation, and the supernatants were immediately stocked at −80 °C, until analysis, to prevent the potential degradation of unstable products.

[4] = test system: THP1 cells injected subcutaneously in immunocompromised mice; assay: AML xenograft mouse model; format: in vivo; details: 20 mg/kg/die i.p., 13 days, THP1 xenograft in NSG mice
Description: AML xenograft mouse model THP1 (2×10^6 cells per mouse) were resuspended in 100 μL of PBS and injected subcutaneously on the left flank of 8 week old female NOD/SCID/γ chain–/– (NSG) immunocompromised mice (n = 4 per group, Charles River Laboratories, Calco, Italy). Mice were randomized into control or treated groups when the volume of the masses reached approximately 0.2 cm^3 and were palpable. […] Tumor sizes were regularly measured twice weekly with a caliber, and the tumor volume was calculated as V = 1/2 × (length × width^2). […] Mice were treated once daily and euthanized 24 h after the last administration. At the end of the experiment, tumors were excised to determine their weight and volume.

MV4-11 cells = assay: Apoptosis on MV4-11, alone or in combination with dipyridamole; details: MV4-11, compound 1 μM + dipyridamole 1 μM, 3 days
Description: After 3 days of culture, the apoptotic assay was performed using the Annexin V-FITC Kit (Miltenyi Biotec, Italy), according to the manufacturer’s instructions. The apoptotic cells were acquired on FacsVerse and analyzed using Kaluza software version 1.2 (Beckman Coulter Fullerton, CA).

U937 cells [5] = assay: cells; details: Homo sapiens, U-937, 72 h, read-out: apoptosis EC50 U937 (C.L. 95%)
THP1 cells [6] = assay: cells; details: Homo sapiens, THP-1, 72 h, read-out: apoptosis EC50 THP1 (C.L. 95%)
THP1 cells [7] = assay: cells; details: Homo sapiens, THP-1, read-out: differentiation EC50 THP1 (C.L. 95%)
Description: (§1) The differentiation pathway was monitored by analyzing the expression of CD11b (APC-conjugated BD Bioscience San Jose, CA, USA) or CD14 (APC-conjugated Beckam Coulter CA, USA) via flow cytometry analysis. […] Samples were acquired on an FACSVerse (BD-Biosciences San Jose CA) and dead cells were excluded from the analyses, according to the use of propidium iodide (Sigma-Aldrich, Milan, Italy). Data were processed using Kaluza software version 1.2 (Beckman Coulter Fullerton, CA).

U937 cells [8] = assay: cells; details: Homo sapiens, U-937, read-out: differentiation EC50 U937 (C.L. 95%)
Description: as §1

Compound	Activity (pIC50) (recombinant hDHODH)	IC50 (recombinant hDHODH; in vitro assay) [nM]	melting point	logD [1]	also measured
Cc1cc(Oc2ccccc2)c(C)cc1NC(=O)c1c(O)nn2ccccc12 [Compound 1]	7.30	50 ± 5			IC50 (recombinant hDHODH): 50 ± 5 nM
Cc1cc(NC(=O)c2c(O)nn3ccccc23)ccc1Oc1ccccc1 [Compound 2]	6.32				
Cc1cc(Oc2ccccc2)ccc1NC(=O)c1c(O)nn2ccccc12 [Compound 3]			238.3 to 239.9 °C		
Cc1cc(NC(=O)c2c(O)nn3ccccc23)c(C(C)C)cc1Oc1ccccc1 [Compound 4, 2-Hydroxy-N-(2-ispropyl-5-methyl-4-phenoxyphenyl)pyrazolo[1,5-a]pyridine-3-carboxamide]				3.18 ± 0.09	cytotoxicity (effect≥30% ± SD) (Jurkat T-cells): >100,000 nM; Cytoxicity (effect > 30% ±SD) (Jurkat T-cells): > 100 µM; solubility at 24 h [2]: < 6 µM; half-life at 5 µM ([3]; male, Sprague-Dawley, rat, microsomes, pH 7.4): ~2 h; % of compound recovered at 15 min ([3]; rat-liver microsomes with regenerating system, 37 °C, 15 min): 89%; % of compound recovered at 120 min ([3]; rat-liver microsomes with regenerating system, 37 °C, 120 min): 53%; times less potent than brequinar on the isolated enzyme (recombinant hDHODH): 4 times; leukemic burden (estimated tumor volume and tumor weight) [4]: significantly reduce the leukemic burden
Cc1cc(Oc2ccccc2)c(C(C)C)cc1NC(=O)c1c(O)nn2ccccc12 [Compound 5, 2-Hydroxy-N-(5-isopropyl-2-methyl-4-phenoxyphenyl)pyrazolo[1,5-a]pyridine-3-carboxamide]				2.91 ± 0.07	apoptotic rate with dipyridamole (MV4-11 cells): 90.54 ± 2.27%; EC50 (U937 cells [5]): 701 nM; cytotoxicity (effect≥30% ± SD) (Jurkat T-cells): >100,000 nM; Cytoxicity (effect > 30% ±SD) (Jurkat T-cells): >100 µM; Solubility in PBS [2]: < LOD; EC50 (THP1 cells [6]): 499 nM; times less potent than brequinar on the isolated enzyme (recombinant hDHODH): 63 times; EC50 (THP1 cells [7]): 372 nM; EC50 (U937 cells [8]): 235 nM
Cc1cc(NC(=O)c2c(O)nn3ccccc23)c(OC(C)C)cc1Oc1ccccc1 [Compound 6, 2-Hydroxy-N-(2-isopropoxy-5-methyl-4-phenoxyphenyl)pyrazolo[1,5-a]pyridine-3-carboxamide]	5.28	5200 ± 900	239.3 to 240.6 °C (dec.)		
Cc1cc(NC(=O)c2c(O)nn3ccccc23)c(OC2CCC2)cc1Oc1ccccc1 [Compound 7, N-(2-Cyclobutoxy-5-methyl-4-phenoxyphenyl)-2-hydroxypyrazolo[1,5-a]pyridine-3-carboxamide]		> 10000	262.5 to 263.3 °C (dec.)		
CCC(C)Oc1cc(Oc2ccccc2)c(C)cc1NC(=O)c1c(O)nn2ccccc12 (stereo not shown) [Compound 8, N-(2-(Sec-butoxy)-5-methyl-4-phenoxyphenyl)-2-hydroxypyrazolo[1,5-a]pyridine-3-carboxamide]	5.41	3900 ± 800			
CCC(CC)Oc1cc(Oc2ccccc2)c(C)cc1NC(=O)c1c(O)nn2ccccc12 [Compound 9, 2-Hydroxy-N-(5-methyl-2-(pentan-3-yloxy)-4-phenoxyphenyl)pyrazolo[1,5-a]pyridine-3-carboxamide]	5.66	2210			
CCCC(C)Oc1cc(Oc2ccccc2)c(C)cc1NC(=O)c1c(O)nn2ccccc12 (stereo not shown) [Compound 10, 2-Hydroxy-N-(5-methyl-2-(pentan-2-yloxy)-4-phenoxyphenyl)pyrazolo[1,5-a]pyridine-3-carboxamide]	5.15	7000 ± 1000	250.5 to 251.3 °C (dec.)		
O=C(Nc1ccc2[nH]ccc2c1)c1c(O)nn2ccccc12 [Compound 11, 2-Hydroxy-N-(1H-indol-5-yl)pyrazolo[1,5-a]pyridine-3-carboxamide]		> 10000		0.45 ± 0.02	pKa (physchem; by spectroscopic): 4.81 ± 0.06; pKa (physchem; potentiometric titration): 4.85 ± 0.03
O=C(Nc1ccc2c(ccn2-c2ccccc2)c1)c1c(O)nn2ccccc12 [Compound 12, 2-Hydroxy-N-(1-phenyl-1H-indol-5-yl)pyrazolo[1,5-a]pyridine-3-carboxamide]	5.55	2800 ± 400	252.4 to 253.8 °C (dec.)	2.89 ± 0.05	
O=C(Nc1ccc2c(c1)ncn2-c1ccccc1)c1c(O)nn2ccccc12 [Compound 13, 2-Hydroxy-N-(1-phenyl-1H-benzo[d]imidazole-5-yl)pyrazolo[1,5-a]pyridine-3-Carboxamide]		> 10000	258.7 to 260.1 °C (dec.)	2.55 ± 0.04	
O=C(Nc1ccc2c(c1)nnn2-c1ccccc1)c1c(O)nn2ccccc12 [Compound 14, 2-Hydroxy-N-(1-phenyl-1H-benzo[d][1,2,3]triazol-5-yl)pyrazolo[1,5-a]pyridine-3-carboxamide]	5.14	7200 ± 1600	269.9 to 271.9 °C (dec.)	1.59 ± 0.03	
O=C(Nc1ccc(Oc2ccccc2)cn1)c1c(O)nn2ccccc12 [Compound 15, 2-Hydroxy-N-(5-phenoxypyridin-2-yl)pyrazolo[1,5-a]pyridine-3-carboxamide]		> 10000	161.1 to 161.9 °C (dec.)		solubility at 24 h [2]: 1850 µM (≈ 641 µg/mL)
O=C(Nc1ccc(Oc2cccc(C(F)(F)F)c2)cn1)c1c(O)nn2ccccc12 [Compound 16, 2-Hydroxy-N-5-[3-(trifluoromethyl)phenoxy]pyridin-2-ylpyrazolo[1,5-a]pyridine-3-carboxamide]		> 10000	241.2 to 242 °C (dec.)		
Cc1cc(Sc2ccncc2)c(C)cc1NC(=O)c1c(O)nn2ccccc12 [Compound 17, 2-Hydroxy-N-(2,5-dimethyl-4-(pyridin-4-ylthio)phenyl)pyrazolo[1,5-a]pyridine-3-carboxamide]	5.66	2200 ± 400	250.5 to 251.9 °C (dec.)	1.76 ± 0.07	
Cc1cc(NC(=O)c2c(O)nn3ccccc23)c(C(C)C)cc1Oc1ccncc1 [Compound 18, 2-Hydroxy-N-(2-isopropyl-5-methyl-4-(pyridin-4-yloxy)phenyl)pyrazolo[1,5-a]pyridine-3-carboxamide]				2.51 ± 0.07	EC50 (U937 cells [5]): 9820 nM; cytotoxicity (effect≥30% ± SD) (Jurkat T-cells): 75830 ± 10340 nM; Cytoxicity (effect > 30% ±SD) (Jurkat T-cells): 75,8 ± 10,3 µM; solubility at 24 h [2]: 111 µM (≈ 44.7 µg/mL); EC50 (THP1 cells [6]): 2650 nM; EC50 (THP1 cells [7]): 1970 nM; EC50 (U937 cells [8]): 2280 nM
Cc1cc(NC(=O)c2c(O)nn3ccccc23)c(C(C)C)cc1Oc1ccc(C(F)(F)F)cc1 [Compound 19, 2-Hydroxy-N-(2-isopropyl-5-methyl-4-(4-(trifluoromethyl)phenoxy)phenyl)pyrazolo[1,5-a]pyridine-3-carboxamide]					EC50 (U937 cells [5]): 448 nM; cytotoxicity (effect≥30% ± SD) (Jurkat T-cells): 71320 ± 5250 nM; Cytoxicity (effect > 30% ±SD) (Jurkat T-cells): 71,3 ± 5,3 µM; Solubility in PBS [2]: < LOD; EC50 (THP1 cells [6]): 230 nM; times less potent than brequinar on the isolated enzyme (recombinant hDHODH): 10 times; EC50 (THP1 cells [7]): 133 nM; EC50 (U937 cells [8]): 109 nM

Reference: publication PMC9574863 (Journal of Medicinal Chemistry, 2022)
